Data on 16 molecules can be found in patent US20240308995A1, “O-GLYCOPROTEIN-2-ACETAMIDO-2-DEOXY-3-D-GLUCOPYRANOSIDASE INHIBITORS” (BIOGEN MA INC., priority 2018, published 2024).

Series [1] has as its target OGA (S400 O-GLCNAC), HEK-293T cells transfected with Tau-V5 (Homo sapiens (Human), UniProt O60502). As to the kind of experiment: Cellular OGA-Tau MSD Assay. It is filed as cell-based. As to conditions: HEK-293T cells, Tau-S400-GlcNAc MSD readout. The procedure, abridged: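 HEK-293T cells transfected with OGA and Tau-V5 plasmids were treated overnight at 37° C with a 10-point, 3-fold titration from 1 uM. Lysates went onto V5-antibody MSD plates to capture Tau, probed with a Tau O-GlcNAc antibody and read by electrochemiluminescence; IC50 from a 4-parameter fit.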

Series [2] is described as follows: Rat Liver Microsome Stability Assay. It is filed as in vitro ADME. To be noted: rat liver microsomes, 1 uM compound. Background: Liver microsomes are vesicles of endoplasmic reticulum, rich in cytochrome P450 enzymes.
Series [3] deals with Recombinant full length human OGA enzyme (Homo sapiens (Human), UniProt O60502). As to the kind of experiment: OGA Enzyme Inhibition Biochemical Assay. To be noted: 1 nM OGA, 100 μM 4-MUGlcNAc, pH 6.4. Put shortly:
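Full-length recombinant human OGA with fluorogenic 4-MUGlcNAc in McIlvaine buffer pH 6.4, 0.01% BSA; 90 min at room temperature, glycine pH 10 quench, fluorescence Ex 355/Em 460 nm. 10-point, 4-fold dilution from 20 μM; 4-parameter variable-slope fit.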

In another series the test system is P-gp (MDR1). As to the kind of experiment: MDR1-MDCK Efflux Ratio Assay. In kind it is in vitro ADME. As to conditions: dog, MDCK-MDR1, pH 7.4, MDR1-MDCK cells, 2 hr, pH 7.4; read-out: MDR1-MDCK Efflux Ratio (B-A/A-B). The procedure, abridged:
(§1)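 Bidirectional (apical↔basolateral) transport across confluent MDR1-MDCK monolayers in HBSS/10 mM HEPES pH 7.4, receiver buffer with 1% BSA; 2 hr at 37° C, 5% CO2. Donor sampled at 0 and 120 min, receiver at 120 min, quantified by LC-MS/MS in triplicate. Papp, efflux ratio and percent recovery calculated.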

The subject of series [4] is MDR1-MDCK cell monolayers. As to the kind of experiment: MDR1-MDCK Efflux Ratio Assay. It is filed as in vitro ADME. As to conditions: MDR1-MDCK cells, 2 hr, pH 7.4. Put shortly: as §1

OGA (S400 O-GLCNAC), HEK-293T cells transfected with Tau-V5, sequence (O60502 whole entry): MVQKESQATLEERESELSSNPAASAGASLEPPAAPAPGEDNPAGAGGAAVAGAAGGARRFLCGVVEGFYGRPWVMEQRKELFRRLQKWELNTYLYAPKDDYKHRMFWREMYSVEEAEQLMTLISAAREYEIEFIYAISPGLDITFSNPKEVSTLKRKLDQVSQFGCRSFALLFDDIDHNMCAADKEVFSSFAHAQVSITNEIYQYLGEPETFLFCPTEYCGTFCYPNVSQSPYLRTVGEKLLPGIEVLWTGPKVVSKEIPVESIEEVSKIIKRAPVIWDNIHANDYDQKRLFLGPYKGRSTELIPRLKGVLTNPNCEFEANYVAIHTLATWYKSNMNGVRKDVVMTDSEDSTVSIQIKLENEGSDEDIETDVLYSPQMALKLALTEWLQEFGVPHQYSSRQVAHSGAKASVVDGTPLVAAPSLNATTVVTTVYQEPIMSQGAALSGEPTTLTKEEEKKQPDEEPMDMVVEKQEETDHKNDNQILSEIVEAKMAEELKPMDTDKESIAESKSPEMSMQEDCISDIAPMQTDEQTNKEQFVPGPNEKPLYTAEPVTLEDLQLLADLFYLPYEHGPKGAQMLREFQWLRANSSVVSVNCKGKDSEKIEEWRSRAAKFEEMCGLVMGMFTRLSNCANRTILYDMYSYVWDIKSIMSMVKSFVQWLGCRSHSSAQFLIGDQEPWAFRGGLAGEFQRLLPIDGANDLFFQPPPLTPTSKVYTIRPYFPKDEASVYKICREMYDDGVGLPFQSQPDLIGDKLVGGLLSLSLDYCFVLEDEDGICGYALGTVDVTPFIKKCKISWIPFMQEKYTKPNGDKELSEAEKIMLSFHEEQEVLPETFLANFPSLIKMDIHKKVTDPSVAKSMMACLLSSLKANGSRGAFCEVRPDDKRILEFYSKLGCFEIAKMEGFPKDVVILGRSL
Recombinant full length human OGA enzyme, sequence (O60502 whole entry): as above

The term IC50 denotes the concentration at which inhibition is half-maximal. Turning to `CC(=O)Nc1ncc(CN2C[C@H](Oc3cc(OC(C)C)ncn3)C[C@@H]2C)s1` [Example 1-127, N-(5-(((2S,4R)-4-((6-isopropoxypyrimidin-4-yl)oxy)-2-methylpyrrolidin-1-yl)methyl)thiazol-2-yl)acetamide], the results for the IC50 in series [1] and in series [3] were 8 nM and 1.9 nM, respectively. The “RLM % Qh (%)” value in series [2] is 62%. Moreover, the efflux ratio at 2 h in the series on P-gp (MDR1) is 3.1.
The like results for `CC(=O)Nc1ncc(CN2C[C@H](Oc3cc(C)nc(C)n3)C[C@@H]2C)s1` [Example 1-128, N-(5-(((2S,4R)-4-((2,6-dimethylpyrimidin-4-yl)oxy)-2-methylpyrrolidin-1-yl)methyl)thiazol-2-yl)acetamide] were, in that order, 1 nM, below 1 nM, 48% and 26.3.
The like results for `CC(=O)Nc1ncc(CN2C[C@H](Oc3cc(N4CCCC4)ncn3)C[C@@H]2C)s1` [Example 1-129, N-(5-(((2S,4R)-2-methyl-4-((6-(pyrrolidin-1-yl)pyrimidin-4-yl)oxy)pyrrolidin-1-yl)methyl)thiazol-2-yl)acetamide] were, in that order, 1 nM, below 1 nM, 65% and 25.5.
The matching figures for `CC(=O)Nc1ncc(CN2C[C@H](Oc3cc(N4CCOCC4)ncn3)C[C@@H]2C)s1` [Example 1-130, N-(5-(((2S,4R)-2-methyl-4-((6-morpholinopyrimidin-4-yl)oxy)pyrrolidin-1-yl)methyl)thiazol-2-yl)acetamide]: 3 nM, below 1 nM, 37% and 30.3.
For the molecule `CC(=O)Nc1ncc(CN2C[C@H](Oc3cc(N(C)C)ncn3)C[C@@H]2C)s1` [Example 1-131, N-(5-(((2S,4R)-4-((6-(dimethylamino)pyrimidin-4-yl)oxy)-2-methylpyrrolidin-1-yl)methyl)thiazol-2-yl)acetamide], the figures for the IC50 in series [1] and in series [3] were 1 nM and below 1 nM, respectively. Besides, the “RLM % Qh (%)” value in series [2] is 58%. For the same molecule, in the series with P-gp (MDR1), the efflux ratio at 2 h amounted to 17.8.
The like results for `CCN(C)c1cc(O[C@@H]2C[C@H](C)N(Cc3cnc(NC(C)=O)s3)C2)ncn1` [Example 1-132, N-(5-(((2S,4R)-4-((6-(ethyl(methyl)amino)pyrimidin-4-yl)oxy)-2-methylpyrrolidin-1-yl)methyl)thiazol-2-yl)acetamide] were, in that order, 2 nM, below 1 nM, 76% and 19.7.
The like results for `CC(=O)Nc1ncc(CN2C[C@H](Oc3cc(N4CCC4)ncn3)C[C@@H]2C)s1` [Example 1-133, N-(5-(((2S,4R)-4-((6-(azetidin-1-yl)pyrimidin-4-yl)oxy)-2-methylpyrrolidin-1-yl)methyl)thiazol-2-yl)acetamide] were, in that order, 1 nM, below 1 nM, 43% and 23.6.
The matching figures for `CC(=O)Nc1ncc(CN2C[C@H](Oc3cc(NC4CCC4)ncn3)C[C@@H]2C)s1` [Example 1-134, N-(5-(((2S,4R)-4-((6-(cyclobutylamino)pyrimidin-4-yl)oxy)-2-methylpyrrolidin-1-yl)methyl)thiazol-2-yl)acetamide]: 1 nM, below 1 nM, 70% and 53.4.
As to `CCNc1cc(O[C@@H]2C[C@H](C)N(Cc3cnc(NC(C)=O)s3)C2)ncn1` [Example 1-135, N-(5-(((2S,4R)-4-((6-(ethylamino)pyrimidin-4-yl)oxy)-2-methylpyrrolidin-1-yl)methyl)thiazol-2-yl)acetamide], the IC50 was 1 nM in series [1] and below 1 nM in series [3]. In addition, in series [2], the “RLM % Qh (%)” value was found to be 36%. Besides, in the series on P-gp (MDR1), the efflux ratio at 2 h stood at 76.5.
The like results for `CC(=O)Nc1ncc(CN2C[C@H](Oc3cc(NC(C)C)ncn3)C[C@@H]2C)s1` [Example 1-136, N-(5-(((2S,4R)-4-((6-(isopropylamino)pyrimidin-4-yl)oxy)-2-methylpyrrolidin-1-yl)methyl)thiazol-2-yl)acetamide] were, in that order, 2 nM, below 1 nM, 24% and 32.
As to `CC(=O)Nc1ncc(CN2C[C@H](Oc3cc(OC4CCCC4)ncn3)C[C@@H]2C)s1` [Example 1-138, N-(5-(((2S,4R)-4-((6-(cyclopentyloxy)pyrimidin-4-yl)oxy)-2-methylpyrrolidin-1-yl)methyl)thiazol-2-yl)acetamide], the values for the half-inhibitory concentration (IC50) in series [1] and in series [3] were 28 nM and below 1 nM, respectively. Further, the “RLM % Qh (%)” value in series [2] turned out to be 87%. In addition, the efflux ratio at 2 h in the series on P-gp (MDR1) worked out at 2.6.
As to `CC(=O)Nc1nc(F)c(CN2C[C@H](Oc3cc(OC4COC4)ncn3)C[C@@H]2C)s1` [Example 1-140, N-(4-fluoro-5-(((2S,4R)-2-methyl-4-((6-(oxetan-3-yloxy)pyrimidin-4-yl)oxy)pyrrolidin-1-yl)methyl)thiazol-2-yl)acetamide], the IC50 is 4 nM in series [1] and below 1 nM in series [3]. In addition, in series [2], the “RLM % Qh (%)” value was 43%. The efflux ratio at 2 h in the series with P-gp (MDR1) came to 8.4.
As to `CC(=O)Nc1nc(F)c(CN2C[C@H](Oc3cnc(N4CCOCC4)cn3)C[C@@H]2C)s1` [Example 1-142, N-(4-fluoro-5-(((2S,4R)-2-methyl-4-((5-morpholinopyrazin-2-yl)oxy)pyrrolidin-1-yl)methyl)thiazol-2-yl)acetamide], the IC50 is 2 nM in series [1] and below 1 nM in series [3]. In addition, the “RLM % Qh (%)” value in series [2] was 59%. In addition, the efflux ratio at 2 h with P-gp (MDR1) came to 8.3.
Take `CC(=O)Nc1nc(F)c(CN2C[C@H](Oc3cc(N4CCOCC4)ccn3)C[C@@H]2C)s1` [Example 1-143, N-(4-fluoro-5-(((2S,4R)-2-methyl-4-((4-morpholinopyridin-2-yl)oxy)pyrrolidin-1-yl)methyl)thiazol-2-yl)acetamide]: the IC50 was 4 nM in series [1] and below 1 nM in series [3]. In series [2], the “RLM % Qh (%)” value was determined as 75%. Further, the efflux ratio at 2 h with P-gp (MDR1) was 25.6.
The like results for `[2H][C@]1(Oc2cc(OC)ncn2)C[C@H](C)N(Cc2cnc(NC(C)=O)s2)C1` [Example 1-164, N-(5-(((2S,4S)-4-((6-methoxypyrimidin-4-yl)oxy)-2-methylpyrrolidin-1-yl-4-d)methyl)thiazol-2-yl)acetamide] were, in that order, 35 nM, 9.7 nM, 49% and 3.8.
For the molecule “N-(4-fluoro-5-(((2S,4R)-4-((6-methoxypyrimidin-4-yl-4,5,6-^13C3)oxy)-2 methylpyrrolidin-1-yl)methyl)thiazol-2-yl)acetamide [Example 1-153]”, the half-maximal inhibitory concentration (IC50) in series [1] was 1 nM; in series [3], below 1 nM. Also, in series [2], the “RLM % Qh (%)” value came out at 39%. Besides, in series [4], the “MDR1-MDCK Efflux Ratio (B-A/A-B)” value is given as 2.3.
